According to patent EP1543832A2, “Use of trans-4[4-(3-chloro-4-methoxy-benzylamino) benzothieno[2,3-d]pyrimidin-2-yl]-cyclohexanecarboxylic acid in the treatment of extrapyramidal movement disorders” (MERCK PATENT GmbH, priority 2003, dated 2005):

Experiments:
[1] = test system: neuroleptics-induced muscle rigidity in rats; experiment: Neuroleptics-induced muscle rigidity (haloperidol challenge); assay type: in vivo; conditions: resistance to passive flexion and extension of the hind limb
Text: A typical animal model is neuroleptics-induced muscle rigidity in rats according to S. Wolfarth et al., Arch. Pharmacol. 1992; 345: 209-212. Rats are challenged with the conventional neuroleptic drug haloperidol which enhances muscle tone. Muscle tone is electromechanically measured as the resistence to passive flexion and extension of the hind limb. Trans-4-[4-(3-chloro-4-methoxybenzylamino)-benzothieno-[2,3-d]pyrimidin-2-yl]cyclo-hexanecarboxylic acid or a physiologically acceptable salt thereof thereof decrease the mucle tone enhanced by haloperidol.

[2] = test system: Parkinsonian cynomolgus monkey; experiment: MPTP Parkinsonian cynomolgus monkey, Laval University Disability Scale; assay type: in vivo
Text: A typical animal model for idiopathic Parkinson's disease is the Parkinsonian cynomolgus monkey according to P.J. Blanchet et al., Exp. Neurology 1998; 153: 214-222. Monkeys render parkinsonian by repeated injections of 1-methyl-4-phenyl-1,2,3,6-tetrahydropyridine (MPTP).
Parkinsonian symptoms are qualitatively assessed by the use of the Laval University Disability Scale (B. Gomez-Mancilla et al., 1993; Mov. Disord. 8: 144-150) measuring the following symptoms: posture, mobility, climbing, gait, holding food, vocalizing, grooming, social interaction.

[3] = test system: cervical dystonia (spasmodic torticollis); experiment: Double-blind placebo-controlled study in cervical dystonia (TWSTRS); assay type: in vivo, patients; conditions: 2.5 mg to 20 mg b.i.d. versus placebo
posthypoxic myoclonus = experiment: Posthypoxic myoclonus after cardiac arrest; assay type: in vivo; conditions: rats resuscitated after cardiac arrest for 8 minutes
Procedure: A typical animal model for myoclonus is myoclonus induced by an acute hypoxic episode according to D.D. Truong et al., Mov. Dsiord., 1994; 9: 201-206). In this model of posthypoxic myoclonus, rats undergo a cardiac arrest for 8 minutes and are resuscitated thereafter. Myoclonic jerks occur spontaneously but can be provoked by auditory stimulation, too, worsening over the days following cardiac arrest.

Weaver mutant mouse = experiment: Weaver mutant mouse, locomotor activity in activity cages; assay type: in vivo
Text: Typical genetic models in mutant animals are the Campus Syndrome in the Pietrain pig according to A. Richter et al. (Exp. Neurology, 1995; 134: 205-213) or the Weaver mutant mouse according to J.R. Simon and B. Ghetti (Mol. Neurobiol., 1994; 9: 183-189). In the Campus Syndrome model, these mutant pigs show a high-frequency tremor when standing and during locomotion, but not while lying at rest. Assessment of tremor is made by accelerometric recording. In the Weaver mutant mouse, degenerative cerebellar atrophy is fould in association with tremor, gait instability, and toppling over the sides after a few steps.
Trans-4-[4-(3-chloro-4-methoxybenzylamino)-benzothieno-[2,3-d]pyrimidin-2-yl]cyclohexanecarboxylic acid or a physiologically acceptable salt thereof improve the Campus Syndrome in the Pietrain pig, i.e. reduce disabling tremor when standing and during locomotion, and enhance locomotor activity in the Weaver mutant mouse.

[4] = test system: patients with Huntington's disease; experiment: Placebo-controlled add-on trial in Huntington's disease; assay type: in vivo; conditions: AIMS, UHDRS, video recordings; add-on 2.5 to 20 mg b.i.d. versus placebo
Procedure: A typical trial to establish the effect of the compounds according to the invention on chorea, voluntary motor performance, and functional disability in patients with Huntington's disease encompasses 32 genetically diagnosed patients. Trans-4-[4-(3-chloro-4-methoxybenzylamino)-benzothieno-[2,3-d]pyrimidin-2-yl]cyclohexanecarboxylic acid sodium or ethanolamine salt or placebo is administered as "add on" to the conventional treatment, which is maintained unchanged during the whole study. The dose of blinded medication is titrated over a period of 3 weeks in a range from 2.5 to 20 mg b.i.d. Then the medication is held constant for 1 week. Assessments are performed in the week before and at the last day of the trial. Chorea is scored using the abnormal involuntary movement scale (AIMS, W. Guy, in: ECDEU assessment manual. Rockville MD: US dept. of health, education and welfare, 1976: 534-537), the unified Huntington's disease rating scale (UHDRS, Huntington study group, 1996, Movement Disord, 11: 136-42), and judgement of video recordings. Voluntary motor performance is assessed using the UHDRS motor scale. Patients and their partners complete a questionnaire regarding functional disability.

[5] = test system: catalepsy induced by conventional antidopaminergic drugs; experiment: Catalepsy induced by conventional antidopaminergic drugs such as haloperidol; conditions: rat, in vivo
Procedure: Extrapyramidal motor side effects in e.g. rodents are measured by the ability of a drug to induce catalepsy. Catalepsy is defined as a state where an animal continues to remain in an unnormal (nonphysiological 'uncomfortable') posture for a long time (e.g.: M.E. Stanley and S.D. Glick, Neuropharmacology, 1996; 15: 393-394; C.J.E. Niemegeers and P. Janssen, Life Sci., 1979, […]). For example, if a hindpaw of a rat is placed on an elevated level, e.g. a platform elevated 3 cm above ground level, a normal rat immediately withdraws the hindpaw from the platform to the ground level. A cataleptic rat remains in this unnatural posture even for minutes.

COc1ccc(CNc2nc([C@H]3CC[C@H](C(=O)O)CC3)nc3sc4ccccc4c23)cc1Cl [trans-4-[4-(3-chloro-4-methoxybenzylamino)-benzothieno-[2,3-d]pyrimidin-2-yl]cyclohexanecarboxylic acid]
muscle tone enhanced by haloperidol [1]: decrease
parkinsonian symptoms ([2]; Laval University Disability Scale): reduced all the parkinsonian symptoms
total activity ([2]; MPTP monkeys): increased
TWSTRS scores [3]: significant improvement
number of spontaneous and autitory-evoked myoclonic jerks (posthypoxic myoclonus): dose-dependently reduce
locomotor activity (Weaver mutant mouse): enhance
voluntary and involuntary motor performance [4]: significant improvement
prevention of catalepsy induced by conventional antidopaminergic drugs [5]: able to prevent catalepsy
reversal of already existing catalepsy induced by conventional antidopaminergic drugs such as haloperidol [5]: reverses already existing catalepsy
